Measurements: patent US5223526A, “Pyrazole carboxanilide fungicides and use” (Monsanto Company, priority 1992, dated 1993)
Like-named read-outs stand apart in the source and are kept apart here.

Legend:
Botrytis cinerea [1] = test: Eggplant grey mold; assay type: in vivo; design: scale not given here; conditions: inoculated 24 h later, rated after 3-4 days; for Disease Control Rating at 500 ppm: eggplant sprayed with 500 ppm; for Disease Control Rating at 20 ppm: eggplant sprayed with 20 ppm; for Disease Control Rating at 100 ppm: eggplant sprayed with 100 ppm
Summary of the method: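 Protective test: compound formulations (2:3 acetone:water, 0.5% Tween 20; 500, 100 or 20 ppm) sprayed on 14-18-day-old plants, with spore inoculum (4×10^6 spore/mL) applied a day later. Disease control rated on Botrytis lesions after 3-4 days at 23 °C and 100% humidity.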

succinate dehydrogenase = molecular target: T1, succinate dehydrogenase (Botrytis cinerea, UniProt A0A384J5E4+A0A384J8V8+A0A384JHJ5); test: Enzyme inhibition: succinate dehydrogenase activity in Botrytis cinerea mitochondria (DCPIP reduction); assay type: biochemical; conditions: concentration required to inhibit the rate of DCPIP reduction by 50%; Botrytis cinerea isolate Nick mitochondria; read-out: I50 (μM conc.)
T1 construct: succinate-DCPIP reductase assay with KCN
Summary of the method: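 DCPIP (45 μM) reduction at 600 nm tracked with 17 mM succinate, 1 mM KCN and 50 mM potassium phosphate, pH 7.2. Compounds were added in acetone (final 1% v/v), and Botrytis cinerea isolate Nick mitochondrial fraction initiated the reaction. Rates minus endogenous activity gave percentage inhibition, plotted semilog against concentration to derive I50 (μM).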

Botrytis cinerea [2] = test: Vine grey mold (grape berries); assay type: in vivo; conditions: for pest or weed control at 50 ppm: read-out: % DISEASE CONTROL 50 ppm; for pest or weed control at 200 ppm: read-out: % DISEASE CONTROL 200 ppm
Summary of the method: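 Preventive berry test: compound at 50 or 200 ppm (acetone/water, 0.05% Tween 20) applied one day before inoculation with 10^6 spores/mL Botrytis conidia. After 7-10 days at 20 °C under 12 h light, infected surface area rated; disease control expressed as percent reduction from control mean; repeated-test values averaged.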

[3] = tested on: Botrytis cinerea Mitochondria; conditions: 1 μM concentration; cited from earlier work
Rhizoctonia solani = test: Rice sheath blight; assay type: in vivo; design: scale not given here; conditions: inoculated two days later, rated after 7 days, average of five plants; for Disease Control Rating at 0.02 mg/mL: foliage and soil sprayed with 0.02 mg/mL; for Disease Control Rating at 0.1 mg/mL: foliage and soil sprayed with 0.1 mg/mL; for Disease Control Rating at 0.5 mg/mL: foliage and soil sprayed with 0.5 mg/mL
Summary of the method: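 Preventive test: R. solani inoculum on rice grain was applied at the plant base two days after spraying foliage and soil with Compound A (0.5, 0.1 or 0.02 mg/mL, water/acetone/Tween 20). Plants aged 11–15 days stood in flood trays; after 7 days at 25 °C and high humidity, disease control was rated against untreated plants, five plants averaged.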

[4] = grape berries treated with 50 ppm, average of six berries, 7-10 days
[5] = grape berries treated with 200 ppm, average of six berries, 7-10 days

T1 sequence (A0A384J5E4 1-300): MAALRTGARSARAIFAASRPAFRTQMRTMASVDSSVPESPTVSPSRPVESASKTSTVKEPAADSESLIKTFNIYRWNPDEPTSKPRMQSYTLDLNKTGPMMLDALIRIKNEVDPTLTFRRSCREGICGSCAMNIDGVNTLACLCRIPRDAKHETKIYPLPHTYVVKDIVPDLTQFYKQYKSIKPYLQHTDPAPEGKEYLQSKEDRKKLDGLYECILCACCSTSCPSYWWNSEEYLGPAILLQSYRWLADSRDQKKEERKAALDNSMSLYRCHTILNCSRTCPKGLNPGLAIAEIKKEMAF
T1 sequence (A0A384J8V8 1-189): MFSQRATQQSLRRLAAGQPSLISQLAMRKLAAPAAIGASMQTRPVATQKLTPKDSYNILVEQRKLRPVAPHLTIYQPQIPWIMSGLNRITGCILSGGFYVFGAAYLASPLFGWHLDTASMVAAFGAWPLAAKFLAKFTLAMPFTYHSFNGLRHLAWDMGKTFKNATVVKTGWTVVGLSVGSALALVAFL
T1 sequence (A0A384JHJ5 1-192): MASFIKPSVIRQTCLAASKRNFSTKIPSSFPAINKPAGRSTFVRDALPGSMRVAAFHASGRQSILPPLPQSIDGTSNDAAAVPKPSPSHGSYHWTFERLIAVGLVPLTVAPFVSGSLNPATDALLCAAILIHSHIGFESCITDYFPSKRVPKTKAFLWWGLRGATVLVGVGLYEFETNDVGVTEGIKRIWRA
T1 sequence (A0A384K456 1-647 partner): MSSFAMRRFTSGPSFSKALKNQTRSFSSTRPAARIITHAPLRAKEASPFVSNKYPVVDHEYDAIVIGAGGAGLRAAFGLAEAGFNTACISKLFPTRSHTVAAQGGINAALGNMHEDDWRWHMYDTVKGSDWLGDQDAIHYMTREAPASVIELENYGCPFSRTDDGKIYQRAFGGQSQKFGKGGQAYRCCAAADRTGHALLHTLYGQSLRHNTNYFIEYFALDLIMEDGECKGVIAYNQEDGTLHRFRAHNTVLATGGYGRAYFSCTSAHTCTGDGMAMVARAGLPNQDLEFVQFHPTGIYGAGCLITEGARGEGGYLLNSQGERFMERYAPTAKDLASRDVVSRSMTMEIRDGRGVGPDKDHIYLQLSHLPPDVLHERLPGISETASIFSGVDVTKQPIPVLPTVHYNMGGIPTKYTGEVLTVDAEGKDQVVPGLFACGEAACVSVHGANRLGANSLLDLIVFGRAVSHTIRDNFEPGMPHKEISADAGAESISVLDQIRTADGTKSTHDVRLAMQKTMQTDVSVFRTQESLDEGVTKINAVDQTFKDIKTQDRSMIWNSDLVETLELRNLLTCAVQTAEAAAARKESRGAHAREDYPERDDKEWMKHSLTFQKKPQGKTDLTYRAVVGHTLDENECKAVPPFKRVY

| Compound | Disease Control Rating at 500 ppm (Botrytis cinerea [1]) | IC50 (succinate dehydrogenase) | pest or weed control at 50 ppm (Botrytis cinerea [2]) | pest or weed control at 200 ppm (Botrytis cinerea [2]) | inhibition (respiratory inhibition) [3] | Disease Control Rating at 0.02 mg/mL (Rhizoctonia solani) | Disease Control Rating at 0.1 mg/mL (Rhizoctonia solani) | Disease Control Rating at 0.5 mg/mL (Rhizoctonia solani) | pest or weed control at 50 ppm (Botrytis cinerea [2]; [4]) | pest or weed control at 200 ppm (Botrytis cinerea [2]; [5]) | Disease Control Rating at 20 ppm (Botrytis cinerea [1]) | Disease Control Rating at 100 ppm (Botrytis cinerea [1]) |
| --- | --- | --- | --- | --- | --- | --- | --- | --- | --- | --- | --- | --- |
| CC1=C(C(=O)Nc2ccccc2)SCCO1 [Carboxin, carboxin, reference compound] | 0 | 0.72 ± 0.3 µM | 0% | 0% | 68% | 0 | 1 | 3 | – | – | – | – |
| Cn1cc(C(=O)Nc2ccccc2OCC2CCCC2)c(C(F)(F)F)n1 [Example 47, 1H-pyrazole-4-carboxamide, N-[2-(cyclopentylmethoxy)phenyl]-1-methyl-3-(trifluoromethyl)-] | 0 | 0.16 µM | – | – | – | 1 | 3 | 3 | 3% | 0% | – | – |
| Cn1cc(C(=O)Nc2ccc(F)cc2C2CCCCC2)c(C(F)F)n1 [Example 11, 1H-pyrazole-4-carboxamide, N-(2-cyclohexyl-4-fluorophenyl)-3-(difluoromethyl)-1-methyl-] | 3 | 0.0054 µM | – | – | – | 1 | 3 | 3 | 75% | 92% | 2 | 2 |
| Cn1cc(C(=O)Nc2ccccc2C=C2CCCC2)c(C(F)(F)F)n1 [Example 127, 1H-pyrazole-4-carboxamide, N-[2-(cyclopentylidenemethyl)phenyl]-1-methyl-3-(trifluoromethyl)-] | 1 | 0.083 µM | – | – | – | – | – | 2 | 12% | 52% | 0 | 0 |
| Cn1cc(C(=O)Nc2cc(F)ccc2C2CCCCC2)c(C(F)F)n1 [Example 16, 1H-pyrazole-4-carboxamide, N-(2-cyclohexyl-5-fluorophenyl)-3-(difluoromethyl)-1-methyl-] | 1 | 0.024 µM | – | – | – | – | – | 1 | 15% | 57% | – | – |
| C[C@@H]1CCC[C@H](C)[C@H]1Oc1ccccc1NC(=O)c1cn(C)nc1C(F)(F)F [Example 76, 1H-pyrazole-4-Carboxamide, 1 methyl-N-[2-[(2,6-dimethylcyclohexyl)oxy]phenyl]-3-(trifluoromethyl)-, (1alpha,2beta,6beta)-] | 0 | 0.032 µM | – | – | – | – | – | 0 | 8% | 0% | – | – |
| Cn1cc(C(=O)Nc2ccccc2SC2CCCCC2)c(C(F)F)n1 [Example 44, 1H-pyrazole-4-carboxamide, N-[2-(cyclohexylthio)phenyl]-3-(difluoromethyl)-1-methyl-] | 1 | 0.052 µM | – | – | – | – | – | 0 | 0% | 37% | – | – |
| Cn1cc(C(=O)Nc2ccccc2C2=CCC(C(C)(C)C)CC2)c(C(F)F)n1 (stereo not drawn) [Example 132, 1H-pyrazole-4-carboxamide, 3-(difluoromethyl)-N-[2-[4-(1,1-dimethylethyl)-1-cyclohexen-1-yl]phenyl]-1-methyl-] | 0 | 0.0035 µM | – | – | – | 1 | 2 | 3 | 50% | 51% | – | – |
| CC(C)C1=C(c2ccccc2NC(=O)c2cn(C)nc2C(F)(F)F)CCCC1 [Example 128, 1H-pyrazole-4-carboxamide, N-[2-[2-(1-methylethyl)-1-cyclohexen-1-yl]phenyl]-1-methyl-3-(trifluoromethyl)-] | 0 | 1.3 µM | – | – | – | – | – | 0 | 0% | 0% | 0 | 0 |
| Cc1ccc(NC(=O)c2cn(C)nc2C(F)F)c(C2CCCCC2)c1 [Example 28, 1H-pyrazole-4-carboxamide, N-(2-cyclohexyl-4-methylphenyl)-3-(difluoromethyl)-1-methyl-] | 2 | 0.01 µM | – | – | – | – | – | 0 | 37% | 77% | 0 | 1 |
| Cn1cc(C(=O)Nc2ccccc2C2CCCC2)c(I)n1 [Example 69, 1H-pyrazole-4-carboxamide, N-(2-cyclopentylphenyl)-3-iodo-1-methy1-] | 0 | 0.033 µM | – | – | – | 0 | 2 | 3 | 30% | 70% | – | – |
| Cn1cc(C(=O)Nc2ccccc2C2CCCC2)c(C(F)F)n1 [Example 7, 1H-pyrazole-4-carboxamide, N-(2-cyclopentylphenyl)-3-(difluoromethyl)-1-methyl-] | 0 | 0.0072 µM | – | – | – | – | – | 1 | 72% | 86% | – | – |
| Cn1nc(C(F)(F)F)c(C(=O)Nc2ccccc2C2CCCCCC2)c1F [Example 86, 1H-pyrazole-4-carboxamide, N-(2-cycloheptylphenyl)-5-fluoro-1-methyl-3-(trifluoromethyl)-] | 0 | 0.0063 µM | – | – | – | 3 | 3 | 3 | 66% | 82% | – | – |
| Cn1cc(C(=O)Nc2ccccc2CC2CCCCCC2)c(C(F)(F)F)n1 [Example 146, 1H-pyrazole-4-carboxamide, 1-methyl-N-[2-(cycloheptylmethyl)-phenyl]-3-(trifluoromethyl)-] | 1 | 0.053 µM | – | – | – | – | – | 1 | 0% | 0% | 0 | 0 |
